# Assay results taken from ChEMBL document CHEMBL4251590, “Novel vanillin derivatives: Synthesis, anti-oxidant, DNA and cellular protection properties” (Eur J Med Chem, 2018).
# Activity calls are given as the source filed them. The calls are words filed in the database; no cut-off is given here.
# Assays:
# [1] = Antioxidant activity assessed as DPPH radical scavenging activity after 30 mins; assay type: functional
# [2] = Antioxidant activity assessed as ferric ion reducing activity by measuring trolox equivalents using Fe3+-TPTZ after 30 mins by FRAP assay; assay type: functional
# [3] = Antioxidant activity assessed as trolox equivalents of AAPH-induced radical scavenging activity pretreated for 30 mins followed by […] challenge measured every 2 mins for 2 hrs by ORAC-FL assay; assay type: functional
# DNA [4] = assay: Antioxidant activity assessed as protection against AAPH-induced DNA damage in Escherichia coli plasmid pbr322 DNA after 1 hr by agarose gel electrophoresis method; assay type: functional
# SH-SY5Y [5] = assay: Cytoprotective activity against H2O2-induced oxidative damage in human SH-SY5Y cells up to 800 uM preincubated for 24 hrs followed by H2O2 addition and measured after 24 hrs by MTT assay; assay type: functional, cell-based
# [6] = Antioxidant activity assessed as DPPH radical scavenging activity up to 250 uM after 30 mins; assay type: functional
# SH-SY5Y [7] = assay: Cytoprotective activity against H2O2-induced oxidative damage in human SH-SY5Y cells at 5 uM preincubated for 24 hrs followed by H2O2 addition and measured after 24 hrs by MTT assay; assay type: functional
# SH-SY5Y [8] = assay: Cytoprotective activity against H2O2-induced oxidative damage in human SH-SY5Y cells at 200 uM preincubated for 24 hrs followed by H2O2 addition and measured after 24 hrs by MTT assay; assay type: functional
# SH-SY5Y [9] = assay: Cytotoxicity against human SH-SY5Y cells up to 1 mM incubated for 24 hrs by MTT assay; assay type: cell-based
# DNA [10] = assay: Antioxidant activity assessed as protection against AAPH-induced DNA damage in Escherichia coli plasmid pbr322 DNA assessed as DNA intensity level at 4 uM after 1 hr by agarose gel electrophoresis method (reference value: 0%); assay type: functional
# SH-SY5Y [11] = assay: Cytoprotective activity against H2O2-induced oxidative damage in human SH-SY5Y cells at 0.1 uM preincubated for 24 hrs followed by H2O2 addition and measured after 24 hrs by MTT assay; assay type: functional
# SH-SY5Y [12] = assay: Cytoprotective activity against H2O2-induced oxidative damage in human SH-SY5Y cells at 10 uM preincubated for 24 hrs followed by H2O2 addition and measured after 24 hrs by MTT assay; assay type: functional
# SH-SY5Y [13] = assay: Cytotoxicity against human SH-SY5Y cells up to 20 uM incubated for 24 hrs by MTT assay; assay type: cell-based
# DNA [14] = assay: Antioxidant activity assessed as protection against AAPH-induced DNA damage in Escherichia coli plasmid pbr322 DNA assessed as DNA intensity level at 2.6 uM after 1 hr by agarose gel electrophoresis method (reference value: 0%); assay type: functional
# DNA [15] = assay: Antioxidant activity assessed as protection against AAPH-induced DNA damage in Escherichia coli plasmid pbr322 DNA assessed as DNA intensity level at 1 uM after 1 hr by agarose gel electrophoresis method (reference value: 0%); assay type: functional
# DNA [16] = assay: Antioxidant activity assessed as protection against AAPH-induced DNA damage in Escherichia coli plasmid pbr322 DNA assessed as DNA intensity level at 0.65 uM after 1 hr by agarose gel electrophoresis method (reference value: 0%); assay type: functional
# DNA [17] = assay: Antioxidant activity assessed as protection against AAPH-induced DNA damage in Escherichia coli plasmid pbr322 DNA assessed as DNA intensity level at 0.33 uM after 1 hr by agarose gel electrophoresis method (reference value: 0%); assay type: functional
# DNA [18] = assay: Antioxidant activity assessed as protection against AAPH-induced DNA damage in Escherichia coli plasmid pbr322 DNA assessed as DNA intensity level at 0.11 uM after 1 hr by agarose gel electrophoresis method (reference value: 0%); assay type: functional
IC50 [1] [µM],Structure (SMILES),Activity [2] [equiv],Activity [3] [equiv],IC50 (DNA [4]) [µM],further results
13.7,COc1cc(CN(CCCO)Cc2ccc(O)c(OC)c2)ccc1O,0.68,6.02,3.6,Activity (SH-SY5Y [7]): 6%; Activity (SH-SY5Y [8]): 20%; Activity (SH-SY5Y [9]): Non-Toxic
98,Oc1ccc(CN(Cc2ccc(O)cc2)c2ccc(N(Cc3ccc(O)cc3)Cc3ccc(O)cc3)cc2)cc1,2.78,,,
138,COc1cc(CN(Cc2ccc(O)c(OC)c2)[C@H]2CC[C@H](N(Cc3ccc(O)c(OC)c3)Cc3ccc(O)c(OC)c3)CC2)ccc1O,0.56,,,
12.8,COc1cc(CN(CCO)Cc2ccc(O)c(OC)c2)ccc1O,0.62,,,
144,c1ccc(CN(Cc2ccccc2)c2ccc(N(Cc3ccccc3)Cc3ccccc3)cc2)cc1,2.81,,,
29.7,COc1cc(CN(Cc2ccccc2)Cc2ccc(O)c(OC)c2)ccc1O,0.55,5.34,3.8,
5.8,COc1cc(CN(Cc2ccc(O)c(OC)c2)c2ccc(N(Cc3ccc(O)c(OC)c3)Cc3ccc(O)c(OC)c3)cc2)ccc1O,5.29,20.4,0.6,Activity (DNA [10]): 96.1%; Activity (SH-SY5Y [11]): 8%; Activity (SH-SY5Y [12]): 30%; Activity (SH-SY5Y [13]): Non-Toxic; Activity (DNA [14]): 90.5%; Activity (DNA [15]): 81.9%; Activity (DNA [16]): 59.7%; Activity (DNA [17]): 25.1%; Activity (DNA [18]): 15.8%

# Continued, compound first:
Structure (SMILES),IC50 [1] [µM],Activity [2] [equiv],Activity [3] [equiv],IC50 (DNA [4]) [µM],further results
COc1cc(C=O)cc(OC)c1O [SYRINGALDEHYDE],1150,0.93,1.45,9.5,
COc1cc(CNCc2ccccc2)ccc1O,107,0.16,3.16,4.1,
COc1cc(CN(CCCCCO)Cc2ccc(O)c(OC)c2)ccc1O,24,0.63,,,
COc1cc(C=O)ccc1O [VANILLIN],4050,0.11,2.19,5.6,Activity (SH-SY5Y [5]): inactive
COc1cccc(CN(Cc2cccc(OC)c2)c2ccc(N(Cc3cccc(OC)c3)Cc3cccc(OC)c3)cc2)c1,,2.54,,13.6,Activity [6]: inactive
COc1cc(CN(Cc2ccccc2)Cc2cc(OC)c(O)c(OC)c2)cc(OC)c1O,15.4,1.11,,,
COc1cc(CN(CCCCCCO)Cc2ccc(O)c(OC)c2)ccc1O,22.2,0.64,,,
COc1cc(CN(CCCN)Cc2ccc(O)c(OC)c2)ccc1O,,0.28,4.08,61.5,Activity [6]: inactive
COc1cc(/C=N/Cc2ccccc2)ccc1O,248,0.06,1.85,3.8,
COc1cc(CN(CCCN(Cc2ccc(O)c(OC)c2)Cc2ccc(O)c(OC)c2)Cc2ccc(O)c(OC)c2)ccc1O,,0.74,7.54,13.9,Activity [6]: inactive
COc1cc(CN(CCCO)Cc2cc(OC)c(O)c(OC)c2)cc(OC)c1O,12.3,1.14,,,
CCCCN(Cc1ccc(O)c(OC)c1)Cc1ccc(O)c(OC)c1,21.9,0.6,,,
COc1cc(CN(CCCCO)Cc2ccc(O)c(OC)c2)ccc1O,21,0.62,,,
